What all share (type): cell-based, human
For assay [1], the system named is A498 cells (endolysosomal compartment). In words: LysoTracker red fluorescence, A498. Conditions: 20 μM; 48 h; 75 nM LysoTracker red, 1 h, Ex/Em 570/600. As to the method: First, 1.5 × 10^4 769-P or A498 cells were seeded in 96-well plates in full medium. The day after the cells were treated with the peptides for 3 consecutive days to establish 24, 48, and 72 h groups of treatment. LysoTracker Red fluorescence intensity was measured via microplate reader following the protocols described in [75] and applying Ex/Em = 570/600. The cells were incubated with 75 nM of LysoTracker red for 1 h. […]
Figure S6. The effect of the peptide inhibitors on human 769‐P and A498 renal cancer cell on
lysosomes integrity. (a) 769‐P and (b) A498 cells were treated with increasing doses of Ac‐PLVE‐FMK
(red bars) and Ac‐VLPE‐FMK (blue bars) (2.5–250 μM). NR uptake was measured after 24, 48, and 72
h via MTT assay. (c) LysoTracker red evaluation in 769‐P and (d) A498 cells after 24, 48, and 72 h with
the inhibitors (20 μM). Data represent the mean (± S.D.) of at least three independent experiments,
each performed in triplicate. […]

In assay [2] the test system is SNAIL1 in 769-P cells. In words: SNAIL1 protein expression (western blot), 769-P. The following applies: 72 h. The protocol: (§1) These properties could be the result of the modulation of the effectors controlling EMT, as previously shown in other tumor models. To test this hypothesis, the cells were treated with the inhibitors for 24, 48, and 72 h by changing the media every day, and they were tested for E-cadherin and SNAIL1 expression (Figure 6; detail information of western blots can be seen in Supplementary Figure S7). Figure 6 Effects of the peptides on E-cadherin and SNAIL1 protein expression: (a,b) protein expression of E-cadherin and SNAIL1 in 769-P and (c,d) A498 cells after 24, 48, and 72 h of treatment with the peptides. Data are represented as mean ± SD of at least three replicates. Significance was calculated through one-way ANOVA, followed by Dunnet’s test. Cells were seeded in RPMI containing 10% FBS and cultured for 24 h. Next, 30 µM of inhibitors were added to the culture medium and incubated for 24, 48, and 72 h. Control cells were treated with 0.01% DMSO. At all time points the samples were lysed in 50 mM Tri-HCl (pH 8.0), 100 mM NaCl, 0.5% NP-40, 1% Triton X-100, 1× protease inhibitor cocktail (ThermoFisher, Waltham, MA, USA). The 50 µg of protein lysates were separated by electrophoresis on a 12% SDS-PAGE gel and transferred to the PFDF membranes. […] After an additional wash (three times with PBS), reactive bands were detected by chemiluminescence (Bio-Rad, Irvine, CA, USA). […]

In assay [3] the test system is LAMP-1 in 769-P cells. In words: LAMP-1 expression (confocal microscopy), 769-P. The following applies: 20 μM. The protocol: Figure 7 Effect of the peptides on LAMP-1 protein expression: (a) Western blotting analysis of LAMP-1 after treatment with PLVE and VLPE (20 μM) for 24, 48, and 72 h in 769-P cells. (b) Confocal microscopy evaluation of LAMP-1 expression after 48 and 72 h of treatment with PLVE and VLPE (20 μM) in 769-P cells. (c) Western blotting analysis of LAMP-1 after treatment with PLVE and VLPE (20 μM) for 24, 48, and 72 h in A498 cells. (d) Confocal microscopy evaluation of LAMP-1 expression after 48 and 72 h of treatment with PLVE and VLPE (20 μM) in A498 cells. Data are represented as mean ± SD of at least three replicates. Significance was calculated through one-way ANOVA followed by Dunnet’s test. * = p < 0.05, ** = p < 0.01, *** = p < 0.001. The cells were treated for 48 and 72 h, then were fixed in 4% PFA/PBS for 15 min and permeabilized in 0.25% Triton®X-100 for 10 min. After blocking the non-specific sites in 2% BSA/PBS-T, the immunofluorescence was performed overnight with primary antibody anti-LAMP-1 (1:100, Abcam, Eugene, OR, USA) incubation, followed by incubation with the appropriate fluorophore-labeled secondary antibody Donkey anti-Rabbit IgG (H+L) ReadyProbes™, Alexa Fluor 488 (1:500; ThermoFisher, USA). The cells were then counterstained with nuclear dye DAPI and visualized under a fluorescent and/or confocal microscope (Olympus BX51, Shinjuku, Tokyo, Japan, and AxioObserver Z1, Zeiss, Oberkochen, Germany) using oil-immersion lenses.

The subject of assay [4] is SNAIL1 in A498 cells. In words: SNAIL1 protein expression (western blot), A498. The following applies: 72 h. The protocol: as §1
For orientation: In western blotting, separated proteins are transferred to a membrane and probed.

*: point of attachment. CH2F = FC*

Data on two substances can be found in publication PMC7281206, “Cysteine Cathepsins Inhibition Affects Their Expression and Human Renal Cancer Cell Phenotype” (Cancers, 2020).

Regarding Ac-VLPE-CH2F [Ac-VLPE-FMK], the LysoTracker red fluorescence result in assay [1] is “decreasing”. For the same substance, the SNAIL1 protein expression entry in assay [2] and in assay [4] was “dropped to values more similar to the control” each time. Further, the “LAMP-1 expression (confocal)” value in assay [3] (48 h) is “increased LAMP-1 expression”; in assay [3] (72 h), “the content of LAMP-1 decreased towards control levels”.
Regarding Ac-PLVE-CH2F [Ac-PLVE-FMK], the LysoTracker red fluorescence result in assay [1] is recorded as “decreasing”. Also, the SNAIL1 protein expression entry in assay [2] was “increased significantly at 72 h only in the case of 769P cells treated with AC-PLVE-FMK”; in assay [4], “dropped to values more similar to the control”. The “LAMP-1 expression (confocal)” value in assay [3] (48 h) was “increased LAMP-1 expression”; in assay [3] (72 h), “the content of LAMP-1 decreased towards control levels”.
